Laboratory results reported in patent publication US20170157301A1, “LEOLIGIN DERIVATIVES AS SMOOTH MUSCLE CELL PROLIFERATION INHIBITORS” (TECHNISCHE UNIVERSITAET WIEN, priority 2014, published 2017).

What follows are compounds tested on SMCs in relation to ECs (assay: activity ratio: efficiency towards SMCs / efficiency towards ECs). Settings: activity ratio class; order in Table 1 follows the calculated values.
Format: cell-based
Procedure: For determination of vascular SMC proliferation, 0.5×10^4 viable rat aortic SMCs per well were seeded in SMC growth medium (DMEM/F12 medium with 20% serum, 30 μg/mL Gentamicin and 15 ng/mL Amphotericin) in 96-well plates. 24 h later, the medium was removed, the cells were washed once with SMC starvation medium (DMEM/F12 medium with 0.1% serum, 0.2% BSA, 30 μg/mL Gentamicin and 15 ng/mL Amphotericin) and incubated in starvation medium for further 24 h.
The quiescent cells were then pretreated for 30 min with the test compounds and induced to proliferate with 20 ng/mL platelet-derived growth factor (PDGF). Unstimulated cells were utilized for normalization and estimation of the basal level of proliferation. The final concentration of the solvent vehicle, dimethyl sulfoxide (DMSO), was the same (0.1%) in all wells. 48 h later, the SMC proliferation was quantified by resazurin dye conversion for 2 h as previously described (H. Joa et al., J. Nat. Prod. 74(6), 1513-6 (2011)).
For determination of endothelial cell proliferation, 0.5×10^4 HUVECtert immortalized human umbilical vein endothelial cells (H. B. Schiller et al., Mol. Biol. Cell. 20(3), 745-756 (2009)) were seeded in 96-well plates for 24 h in HUVEC Complete Medium (EBM™ growth medium supplemented with 10% fetal bovine serum, EBM™ SingleQuots (Lonza, Basel, Switzerland), 100 U/mL benzylpenicillin, 100 μg/mL streptomycin, and 1% amphotericin). Afterwards, the medium was exchanged with fresh HUVEC Complete Medium and cells were treated with the indicated compounds for 48 h. After the end of the incubation period, the medium was removed, the cells were washed once with 200 μL/well PBS, and treated with 150 μL HUVEC Complete Medium containing 10 μg/mL resazurin. 2 h later, the fluorescence was measured at a wavelength of 580 nm, with excitation wavelength 535 nm in a 96-well plate reader (Tecan GENios Pro; Tecan Group Ltd., Mannedorf, Switzerland).
In every case, the percentage of viable cells was subtracted from 1, in order to obtain a measure of efficiency of the test compounds towards each particular type of cells, and subsequently, the efficiency quotient towards SMCs and ECs was calculated and taken as the “activity ratio” and thus as a measure of selective efficiency of each test compound towards SMCs in relation to ECs. For example, the synthetic Leoligin with the bio ID 2418 prepared in Comparative Example 27 as compound 10-22 gave the following results:
Due to the usual fluctuations in determining surviving cells, which amount to approximately ±10%, and due to the relatively strong resulting fluctuations in calculating quotients—especially if the inhibitory effect of said novel compounds towards ECs is very poor—said threshold value of 1.50 for the activity ratio, as already mentioned above, was introduced.
In the following, a table listing every compound prepared in examples and comparative Examples for which an activity ratio (a.r.) of >1.0 was determined, is given.

Structure (SMILES)	a.r. code
COc1cc([C@H]2OC[C@H](Cc3ccc(C(F)(F)F)cc3)[C@@H]2CO)cc(OC)c1OC [Example 8, ((2S,3R,4R)-4-(4-(trifluoromethyl)benzyl)-2-(3,4,5-trimethoxyphenyl)tetrahydro-furan-3-yl)methanol]	AAA (a.r. ≧ 5.0)
COc1ccc(C[C@H]2CO[C@H](c3cc(OC)c(OC)c(OC)c3)[C@H]2COC(=O)C2=CCCCC2)cc1OC [Comparative Example 46, ((2S,3R,4R)-4-(3,4-dimethoxybenzyl)-2-(3,4,5-trimethoxyphenyl)tetrahydro-furan-3-yl)methyl cyclohex-1-enecarboxylate]	V (1.0 < a.r. < 1.50)
COc1ccc([C@H]2OC[C@H](Cc3ccc(C(C)(F)F)cc3)[C@@H]2CO)cc1OC [Example 6, ((2S,3R,4R)-4-(4-(1,1-difluoroethyl)benzyl)-2-(3,4-dimethoxyphenyl)tetrahydro-furan-3-yl)methanol]	AA (a.r. ≧ 2.0)
COc1ccc(C[C@H]2CO[C@H](c3ccccc3)[C@H]2COC(=O)C2CCCC2)cc1OC [Example 26, ((2S,3R,4R)-4-(3,4-dimethoxybenzyl)-2-phenyltetrahydrofuran-3-yl)methyl cyclopentanecarboxylate]	A (a.r. ≧ 1.50)
COc1ccc(C[C@H]2CO[C@H](c3cc(OC)c(OC)c(OC)c3)[C@H]2COC(=O)c2ccccc2)cc1OC [Example 36, ((2S,3R,4R)-4-(3,4-dimethoxybenzyl)-2-(3,4,5-trimethoxyphenyl)tetrahydro-furan-3-yl)methyl benzoate]	A (a.r. ≧ 1.50)
COc1ccc(C[C@H]2CO[C@H](c3cc(OC)c(OC)c(OC)c3)[C@H]2COC(=O)C2CC2)cc1OC [Example 41, ((2S,3R,4R)-4-(3,4-dimethoxybenzyl)-2-(3,4,5-trimethoxyphenyl)tetrahydro-furan-3-yl)methyl cyclopropanecarboxylate]	AA (a.r. ≧ 2.0)
C/C=C(/C)C(=O)OC[C@H]1[C@@H](Cc2ccc(C(C)=O)cc2)CO[C@@H]1c1cc(OC)c(OC)c(OC)c1 [Example 21, (Z)-((2S,3R,4R)-4-(4-acetylbenzyl)-2-(3,4,5-trimethoxyphenyl)tetrahydrofuran-3-yl)methyl 2-methylbut-2-enoate]	AA (a.r. ≧ 2.0)
COc1ccc(C[C@H]2CO[C@H](c3ccc(F)cc3)[C@H]2COC(=O)CC(C)(C)C)cc1OC [Comparative Example 43, ((2S,3R,4R)-4-(3,4-dimethoxybenzyl)-2-(4-fluorophenyl)tetrahydrofuran-3-yl)-methyl 3,3-dimethylbutanoate]	V (1.0 < a.r. < 1.50)
COc1ccc(C[C@H]2CO[C@H](c3ccc(F)cc3)[C@H]2COC(=O)C2CCC2)cc1OC [Example 33, ((2S,3R,4R)-4-(3,4-dimethoxybenzyl)-2-(4-fluorophenyl)tetrahydrofuran-3-yl)methyl cyclobutanecarboxylate]	AA (a.r. ≧ 2.0)
C/C=C(/C)C(=O)OC[C@H]1[C@@H](Cc2ccc(OC)cc2)CO[C@@H]1c1ccc(F)cc1 [Comparative Example 30, (Z)-((2S,3R,4R)-2-(4-fluorophenyl)-4-(4-methoxybenzyl)tetrahydrofuran-3-yl)-methyl 2-methylbut-2-enoate]	V (1.0 < a.r. < 1.50)
COc1ccc([C@H]2OC[C@H](Cc3ccc(C(C)(C)C)cc3)[C@@H]2COC(=O)C2CCCC2)cc1OC [Example 30, ((2S,3R,4R)-4-(4-(tert-butyl)benzyl)-2-(3,4-dimethoxyphenyl)tetrahydrofuran-3-yl)methyl cyclopentanecarboxylate]	AA (a.r. ≧ 2.0)
COc1cc([C@H]2OC[C@H](Cc3ccc(-c4ccccc4)cc3)[C@@H]2CO)cc(OC)c1OC [Example 9, ((2S,3R,4R)-4-([1,1′-biphenyl]-4-ylmethyl)-2-(3,4,5-trimethoxyphenyl)-tetrahydrofuran-3-yl)methanol]	AA (a.r. ≧ 2.0)
C/C=C(/C)C(=O)OC[C@H]1[C@@H](Cc2ccc(C(F)(F)F)cc2)CO[C@@H]1c1ccc(OC)c(OC)c1 [Comparative Example 24, (Z)-((2S,3R,4R)-2-(3,4-dimethoxyphenyl)-4-(4-(trifluoromethyl)benzyl)tetra-hydrofuran-3-yl)methyl 2-methylbut-2-enoate]	V (1.0 < a.r. < 1.50)
C/C=C(/C)C(=O)OC[C@H]1[C@@H](Cc2ccccc2)CO[C@@H]1c1cc(OC)c(OC)c(OC)c1 [Comparative Example 31, (Z)-((2S,3R,4R)-4-benzyl-2-(3,4,5-trimethoxyphenyl)tetrahydrofuran-3-yl)-methyl 2-methylbut-2-enoate]	V (1.0 < a.r. < 1.50)
COc1ccc(C[C@H]2CO[C@H](c3ccc(F)cc3)[C@H]2COC(=O)CC(C)C)cc1OC [Example 32, ((2S,3R,4R)-4-(3,4-dimethoxybenzyl)-2-(4-fluorophenyl)tetrahydrofuran-3-yl)-methyl 3-methylbutanoate]	AAA (a.r. ≧ 5.0)
C/C=C(\C)C(=O)OC[C@H]1[C@@H](Cc2ccc(OC)c(OC)c2)CO[C@@H]1c1ccc(OC)c(OC)c1 [Comparative Example 35, (E)-((2S,3R,4R)-4-(3,4-dimethoxybenzyl)-2-(3,4-dimethoxyphenyl)tetrahydro-furan-3-yl)methyl 2-methylbut-2-enoate]	V (1.0 < a.r. < 1.50)
COc1cc([C@H]2OC[C@H](Cc3ccc(C(C)(C)C)cc3)[C@@H]2CO)cc(OC)c1OC [Comparative Example 13, ((2S,3R,4R)-4-(4-(tert-butyl)benzyl)-2-(3,4,5-trimethoxyphenyl)tetrahydrofuran-3-yl)methanol]	V (1.0 < a.r. < 1.50)
COc1ccc(C[C@H]2CO[C@H](c3cc(OC)c(OC)c(OC)c3)[C@H]2COC(=O)C=C(C)C)cc1OC [Example 19, ((2S,3R,4R)-4-(3,4-dimethoxybenzyl)-2-(3,4,5-trimethoxyphenyl)tetrahydro-furan-3-yl)methyl 3-methylbut-2-enoate]	AAA (a.r. ≧ 5.0)
CCCC(=O)OC[C@H]1[C@@H](Cc2ccc(OC)c(OC)c2)CO[C@@H]1c1cc(OC)c(OC)c(OC)c1 [Example 37, ((2S,3R,4R)-4-(3,4-dimethoxybenzyl)-2-(3,4,5-trimethoxyphenyl)tetrahydro-furan-3-yl)methyl butyrate]	AAA (a.r. ≧ 5.0)
C/C=C(/C)C(=O)OC[C@H]1[C@@H](Cc2ccc(F)cc2)CO[C@@H]1c1ccc(F)cc1 [Example 17, (Z)-((2S,3R,4R)-4-(4-fluorobenzyl)-2-(4-fluorophenyl)tetrahydrofuran-3-yl)-methyl 2-methylbut-2-enoate]	AAA (a.r. ≧ 5.0)
COc1ccc(C[C@H]2CO[C@H](c3ccc(OC)c(OC)c3)[C@H]2COC(=O)CC(C)C)cc1OC [Comparative Example 41, ((2S,3R,4R)-4-(3,4-dimethoxybenzyl)-2-(3,4-dimethoxyphenyl)tetrahydrofuran-3-yl)methyl 3-methylbutanoate]	V (1.0 < a.r. < 1.50)
C#CCOC[C@H]1[C@@H](Cc2ccc(OC)c(OC)c2)CO[C@@H]1c1ccc(OC)c(OC)c1 [Example 43, (2S,3R,4R)-4-(3,4-dimethoxybenzyl)-2-(3,4-dimethoxyphenyl)-3-((prop-2-yn-1-yloxy)methyl)tetrahydrofuran]	A (a.r. ≧ 1.50)
C/C=C(/C)C(=O)OC[C@H]1[C@@H](Cc2ccc(OC)c(OC)c2)CO[C@@H]1c1ccc(OC)cc1 [Comparative Example 28, (Z)-((2S,3R,4R)-4-(3,4-dimethoxybenzyl)-2-(4-methoxyphenyl)tetrahydrofuran-3-yl)methyl 2-methylbut-2-enoate]	V (1.0 < a.r. < 1.50)
C/C=C(/C)C(=O)OC[C@H]1[C@@H](Cc2ccc(C(=O)OCC)cc2)CO[C@@H]1c1ccc(OC)c(OC)c1 [Example 11, ethyl 4-(((3R,4R,5S)-5-(3,4-dimethoxyphenyl)-4-((((Z)-2-methylbut-2-enoyl)-oxy)methyl)tetrahydrofuran-3-yl)methyl)benzoate]	A (a.r. ≧ 1.50)
COc1ccc(C[C@H]2CO[C@H](c3ccc(OC)c(OC)c3)[C@H]2COC(=O)CC(C)(C)C)cc1OC [Comparative Example 42, ((2S,3R,4R)-4-(3,4-dimethoxybenzyl)-2-(3,4-dimethoxyphenyl)tetrahydrofuran-3-yl)methyl 3,3-dimethylbutanoate]	V (1.0 < a.r. < 1.50)
